Source: patent publication US12115152B2, “Pan-RAF kinase inhibitor and use thereof” (HEFEI INSTITUTES OF PHYSICAL SCIENCE, CHINESE ACADEMY OF …, priority 2019, dated 2024)

What was measured:
[1] = test system: Calu-6 transplanted tumor nude mice; test: Toxicity in Calu-6 cell transplanted tumor mouse model; conditions: Calu-6 cell transplanted tumor model, oral daily; Compound 16 50, 100, 200 mg/kg; Comparative Compound 1 100 mg/kg
[2] = Effect on proliferation of cells, Cell Titer-Glo, 72 hours; assay type: cell-based; conditions: Mus musculus, BaF3 cells
How it was run: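 Cells were incubated 72 h with ten compound concentrations from 0.000508 μM to 10 μM. Viable cell number was measured by ATP quantification with Cell Titer-Glo, and GI50 values were determined.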

With `Cc1ccc(NC(=O)c2cccc(C(F)(F)F)c2)cc1-n1cc(-c2cccnc2)cn1` [compound 1, 3-trifluoromethyl-N-(4-methyl-3-(4-(pyrid-3-yl)-1H-pyrazol-1-yl)phenyl)benzamide, reference compound] the toxicity [1] was “very strong toxicity as all mice died on Day 8” and the GI50 [2] was 3.3 µM.

For `Cc1ccc(NC(=O)c2cccc(C(F)(F)F)c2)cc1-n1cc(-c2cncc(N3CCOCC3)c2)cn1` [Example 16, N-(4-methyl-3-(4-(5-morpholinopyrid-3-yl)-1H-pyrazol-1-yl)phenyl)-3-(trifluoromethyl)benzamide], the toxicity [1] was “did not exhibit any toxicity” and the GI50 [2] was greater than 10 µM.
